Laboratory results published in patent US9656962B2, “Ring-contracted morphinans and the use thereof” (Purdue Pharma L.P., priority 2013, dated 2017).

Biological target: μ-opioid receptor (Homo sapiens (Human), UniProt P35372)
Assay: μ-opioid receptor [35S]GTPγS functional assay, HEK-293 cells (Table 6)
Type: biochemical
Settings: for Emax: relative to DAMGO; for EC50: μ GTP
Experimental: μ-Opioid Receptor Functional Assay Procedures: [^35S]GTPγS functional assays were conducted using freshly thawed μ-receptor membranes prepared in-house from a cell line expressing recombinant μ opioid receptor in a HEK-293, CHO or U-2 OS cell background, or purchased from a commercial source (Perkin Elmer, Shelton, Conn.; or DiscovRx, Fremont, Calif.). Assay reactions were prepared by sequentially adding the following reagents to binding buffer (100 mM NaCl, 10 mM MgCl2, 20 mM HEPES, pH 7.4) on ice (final concentrations indicated): membrane protein (0.026 mg/mL), saponin ([…]), GDP ([…]) and [^35S]GTPγS (0.20 nM; Perkin Elmer, Shelton, Conn.). The prepared membrane solution (190 μl/well) was transferred to 96-shallow well polypropylene plates containing 10 μl of 20× concentrated stock solutions of the agonist [D-Ala^2, N-methyl-Phe^4 Gly-ol^5]-enkephalin (DAMGO) prepared in dimethyl sulfoxide (DMSO). Plates were incubated for 30 min at about 25° C. with shaking Reactions were terminated by rapid filtration onto 96-well Unifilter GF/B filter plates (Perkin Elmer, Shelton, Conn.) using a 96-well tissue harvester (Perkin Elmer, Shelton, Conn.) followed by three filtration washes with 200 μl of ice-cold wash buffer (10 mM NaH2PO4, 10 mM Na2HPO4, pH 7.4). Filter plates were subsequently dried at 50° C. for 2-3 hours. BetaScint scintillation cocktail (Perkin Elmer, Shelton, Conn.) was added (50 μl/well) and plates were counted using a Packard Top-Count for 1 min/well. Data were analyzed using the sigmoidal dose-response curve fitting functions in GraphPad PRISM v. 3.0, or an in-house function for non-linear, sigmoidal dose-response curve-fitting. [^35S]GTPγS functional assays can also be conducted using freshly thawed μ-receptor membranes prepared from a cell line expressing recombinant μ opioid receptor in a CHO-K1 cell background.
μ GTP Emax (%) is the maximal effect elicited by a compound relative to the effect elicited by DAMGO, a standard μ agonist. Generally, the μ GTP Emax (%) value measures the efficacy of a compound to treat or prevent pain or other Conditions.
The following TABLE 6 provides results on the activity response of certain Compounds of the Invention at the μ- and κ-opioid receptors determined as described above using HEK-293 cells.

CN1CC[C@]23C[C@@H](NC(=O)c4ccccc4)C[C@@]2(O)[C@H]1Cc1ccc(O)cc13 [Compound 110, N-((2R,3aS,4R,9bR)-3a,8-dihydroxy-12-methyl-1,2,3,3a,4,5-hexahydro-4,9b-(epiminoethano)cyclopenta[a]naphthalen-2-yl)benzamide]
Emax: 35.2 ± 0.76%
EC50: 8.41 ± 0.956 µM

O=C(NCc1ccc(F)cc1F)[C@@H]1C[C@]23CCN(CC4CC4)[C@H](Cc4ccc(O)cc42)[C@]3(O)C1 [Compound 147, (2R,3aS,4R,9bS)-12-(cyclopropylmethyl)-N-(2,4-difluorobenzyl)-3a,8-dihydroxy-1,2,3,3a,4,5-hexahydro-4,9b-(epimino-ethano)cyclopenta[a]naphthalene-2-carboxamide]
Emax: -1%
EC50 (bound given in μM): > 20 µM

O=C(NCc1ccc(O)c(O)c1)[C@@H]1C[C@]23CCN(CC4CC4)[C@H](Cc4ccc(O)cc42)[C@]3(O)C1 [Compound 140, (2R,3aS,4R,9bS)-12-(cyclopropylmethyl)-N-(3,4-dihydroxybenzyl)-3a,8-dihydroxy-1,2,3,3a,4,5-hexahydro-4,9b-(epimino-ethano)cyclopenta[a]naphthalene-2-carboxamide]
Emax: 0.33 ± 0.67%
EC50 (bound given in μM): > 20 µM

CN1CC[C@]23C[C@@H](C(=O)NCc4ccc(Cl)cc4Cl)C[C@@]2(O)[C@H]1Cc1ccc(O)cc13 [Compound 103, (2R,3aS,4R,9bS)-N-(2,4-dichlorobenzyl)-3a,8-dihydroxy-12-methyl-1,2,3,3a,4,5-hexahydro-4,9b-(epiminoethano)cyclo-penta[a]naphthalene-2-carboxamide]
Emax: 68 ± 9.54%
EC50: 0.389 ± 0.0733 µM

CN1CC[C@]23C[C@@H](C(=O)NCc4ccc(O)cc4O)C[C@@]2(O)[C@H]1Cc1ccc(O)cc13 [Compound 98, (2R,3aS,4R,9bS)-N-(2,4-dihydroxy-benzyl)-3a,8-dihydroxy-12-methyl-1,2,3,3a,4,5-hexahydro-4,9b-(epiminoethano)cyclopenta[a]naphthalene-2-carboxamide]
Emax: 26.7 ± 0.67%
EC50: 1.29 ± 0.223 µM

CN1CC[C@]23C[C@H](NC(=O)c4ccccc4)C[C@@]2(O)[C@H]1Cc1ccc(O)cc13 [Compound 109, N-((2S,3aS,4R,9bR)-3a,8-dihydroxy-12-methyl-1,2,3,3a,4,5-hexahydro-4,9b-(epiminoethano)cyclopenta[a]naphthalen-2-yl)benzamide]
Emax: 70.4 ± 0.98%
EC50: 0.0804 ± 0.0141 µM

O=C(NCc1cc(Cl)cc(Cl)c1)[C@@H]1C[C@]23CCN(CC4CC4)[C@H](Cc4ccc(O)cc42)[C@]3(O)C1 [Compound 150, (2R,3aS,4R,9bS)-12-(cyclopropylmethyl)-N-(3,5-dichlorobenzyl)-3a,8-dihydroxy-1,2,3,3a,4,5-hexahydro-4,9b-(epimino-ethano)cyclopenta[a]naphthalene-2-carboxamide]
Emax: -1%
EC50 (bound given in μM): > 20 µM

Cc1ccc(CNC(=O)[C@@H]2C[C@]34CCN(C)[C@H](Cc5ccc(O)cc53)[C@]4(O)C2)cc1 [Compound 104, (2R,3aS,4R,9bS)-3a,8-dihydroxy-12-methyl-N-(4-methylbenzyl)-1,2,3,3a,4,5-hexahydro-4,9b-(epiminoethano)cyclo-penta[a]naphthalene-2-carboxamide]
Emax: 52 ± 3.51%
EC50: 2.93 ± 1.08 µM

O=C(NCc1cccc(O)c1)[C@@H]1C[C@]23CCN(CC4CC4)[C@H](Cc4ccc(O)cc42)[C@]3(O)C1 [Compound 142, (2R,3aS,4R,9bS)-12-(cyclopropylmethyl)-3a,8-dihydroxy-N-(3-hydroxybenzyl)-1,2,3,3a,4,5-hexahydro-4,9b-(epimino-ethano)cyclopenta[a]naphthalene-2-carboxamide]
Emax: 0%
EC50 (bound given in μM): > 20 µM

O=C([C@H]1C[C@]23CCN(CC4CC4)[C@H](Cc4ccc(O)cc42)[C@]3(O)C1)N1CCN(c2ccccc2)CC1 [Compound 96, ((2S,3aS,4R,9bS)-12-(cyclopropylmethyl)-3a,8-dihydroxy-1,2,3,3a,4,5-hexahydro-4,9b-(epiminoethano)cyclopenta-[a]naphthalen-2-yl)(4-phenylpiperazin-1-yl)methanone]
Emax: 14.2 ± 2.5%
EC50: 0.0144 ± 0.00255 µM

Cc1ccc(CNC(=O)[C@H]2C[C@]34CCN(CC5CC5)[C@H](Cc5ccc(C(N)=O)cc53)[C@]4(O)C2)cc1 [Compound 116, (2S,3aS,4R,9bS)-12-(cyclopropylmethyl)-3a-hydroxy-N^2-(4-methylbenzyl)-1,2,3,3a,4,5-hexahydro-4,9b-(epimino-ethano)cyclopenta[a]naphthalene-2,8-dicarboxamide]
Emax: 23.6 ± 1.05%
EC50: 0.00345 ± 0.00016 µM

O=C(NCc1cccc(Cl)c1)[C@@H]1C[C@]23CCN(CC4CC4)[C@H](Cc4ccc(O)cc42)[C@]3(O)C1 [Compound 152, (2R,3aS,4R,9bS)-N-(3-chlorobenzyl)-12-(cyclopropylmethyl)-3a,8-dihydroxy-1,2,3,3a,4,5-hexahydro-4,9b-(epimino-ethano)cyclopenta[a]naphthalene-2-carboxamide]
Emax: 4.45 ± 3.18%
EC50 (bound given in μM): > 20 µM

O=C(NCc1cccc(O)c1O)[C@@H]1C[C@]23CCN(CC4CC4)[C@H](Cc4ccc(O)cc42)[C@]3(O)C1 [Compound 124, (2R,3aS,4R,9bS)-12-(cyclopropylmethyl)-N-(2,3-dihydroxybenzyl)-3a,8-dihydroxy-1,2,3,3a,4,5-hexahydro-4,9b-(epimino-ethano)cyclopenta[a]naphthalene-2-carboxamide]
Emax: 1.93 ± 2.93%
EC50 (bound given in μM): > 20 µM

O=C(NCc1cc(Cl)ccc1Cl)[C@@H]1C[C@]23CCN(CC4CC4)[C@H](Cc4ccc(O)cc42)[C@]3(O)C1 [Compound 151, (2R,3aS,4R,9bS)-12-(cyclopropylmethyl)-N-(2,5-dichlorobenzyl)-3a,8-dihydroxy-1,2,3,3a,4,5-hexahydro-4,9b-(epimino-ethano)cyclopenta[a]naphthalene-2-carboxamide]
Emax: -1%
EC50 (bound given in μM): > 20 µM

CN1CC[C@]23C[C@@H](C(=O)NCCc4ccccc4)C[C@@]2(O)[C@H]1Cc1ccc(O)cc13 [Compound 100, (2R,3aS,4R,9bS)-3a,8-dihydroxy-12-methyl-N-phenethyl-1,2,3,3a,4,5-hexahydro-4,9b-(epiminoethano)cyclo-penta[a]naphthalene-2-carboxamide]
Emax: 50.3 ± 0.33%
EC50: 1.1 ± 0.188 µM

CN1CC[C@]23C[C@H](C(=O)NCCO)C[C@@]2(O)[C@H]1Cc1ccc(O)cc13 [Compound 115, (2S,3aS,4R,9bS)-3a,8-dihydroxy-N-(2-hydroxyethyl)-12-methyl-1,2,3,3a,4,5-hexahydro-4,9b-(epiminoethano)cyclo-penta[a]naphthalene-2-carboxamide]
Emax: 35 ± 1.14%
EC50: 0.917 ± 0.131 µM

O=C(NCc1cc(O)cc(O)c1)[C@@H]1C[C@]23CCN(CC4CC4)[C@H](Cc4ccc(O)cc42)[C@]3(O)C1 [Compound 139, (2R,3aS,4R,9bS)-12-(cyclopropylmethyl)-N-(3,5-dihydroxybenzyl)-3a,8-dihydroxy-1,2,3,3a,4,5-hexahydro-4,9b-(epimino-ethano)cyclopenta[a]naphthalene-2-carboxamide]
Emax: -1%
EC50 (bound given in μM): > 20 µM

O=C(NCc1ccccc1O)[C@@H]1C[C@]23CCN(CC4CC4)[C@H](Cc4ccc(O)cc42)[C@]3(O)C1 [Compound 149, (2R,3aS,4R,9bS)-12-(cyclopropylmethyl)-3a,8-dihydroxy-N-(2-hydroxybenzyl)-1,2,3,3a,4,5-hexahydro-4,9b-(epimino-ethano)cyclopenta[a]naphthalene-2-carboxamide]
Emax: 0%
EC50 (bound given in μM): > 20 µM
